Laboratory results from patent publication US7323620B2, “Activation of equine oocytes” (Idaho Research Foundation, Inc., priority 2002, dated 2008).

What was measured:
Oocytes from mules = assay: Additional data in mules: calcium concentration in activation medium and peripheral media, pregnancies after nuclear transfer; assay type: in vivo, mule
Source text: The procedures of the above examples were repeated in order to compare results obtained with different concentrations of calcium in the activation medium and in peripheral media, that is media other than the activation medium. Oocytes from mules were placed into one of four groups as follows: In Groups 1 to 3, media was as described above in Examples 1 to 5, except for calcium concentration, which is as described below. In Group 4, media was HECM media.
Tissue Culture Medium (TCM)—199 with Earl's salts • 1.4 mM CaCl2 (1×) • 10% Fetal Bovine Serum (FBS) • 0.05 units FSH • 0.05 units LH • 100 units penicillin • 100 micrograms streptomycin Manipulation Medium:
PB1 (Whittingham, D G, J. Reprod. Fert., 37(1):159-162 (1974) • Dulbecco's phosphate buffered saline • 1.4 mM CaCl2 (1×) • 0.5 mM MgCl2 • 0.33 mM Na-pyruvate • 5.56 mM Glucose • 3 mg/ml Bovine Serum Albumin (BSA)—fraction 5 • 100 units penicillin • 10 micrograms streptomycin Transfer Medium
PB1 (as in Manipulation Medium) except 0.7 mM CaCl2 (1×)
(§1) Holding/Activation/Culture Medium for Group 4 in Example 9 and in horses in Example 10 • HECM (Ball et al., Amer. J. Vet. Res., 54(7):1139-44 (1993) • Ham's F-12+Dulbecco's […] (DMEM)—(50:50, v:v) • 0.71 mM CaCl2 (1×) • 29 mM NaHCO3 • 5 micrograms/ml insulin • 5 micrograms/ml transferrin • 5 ng/ml Na-selenite • 10 ng/ml EGF • 50 IU penicillin • 50 micrograms streptomycin

horse oocytes = assay: Data in horses: protocol of Group 4 of Example 9 repeated with horse oocytes; assay type: in vivo
Description: The protocol of Group 4 of Example 9 was repeated with […] horse oocytes. Of these, pregnancy was detected at two weeks in 6 mares, […]. Of these 6, 3 pregnancies were detected at 30 days and 1 was detected at 45 days.
as §1

equine oocytes = assay: Nuclear transfer with activation of oocytes in calcium chloride/ionomycin activation medium, embryo transfer and pregnancy detection by transrectal ultrasonography (cloned mule embryos); assay type: in vivo, mule (donor cells); recipient mare Equus caballus
Description: A primary culture of fibroblast cells was established from a 45-day mule fetus recovered from a domestic horse mare using transcervical uterine lavage. Culture medium was Glasgow MEM BHK-21 supplemented with 10% FBS, 100 units/ml penicillin, and 100 μg/ml streptomycin. Incubation was performed at 38.5° C. in a humidified atmosphere of 5% CO2 in air. Prior to the nuclear transfer procedure, the fibroblast cells were serum “starved” for 5 to 10 days by placing them into medium with 0.5% FBS.
Mares that were used as oocyte donors and as cloned-embryo recipients were of mixed breeding, 3 to 12 years old, and weighed 300 to 500 kg. The reproductive tracts of the mares were monitored by transrectal palpation and ultrasonography to assess follicular activity, ovulation, and the presence and degree of endometrial edema.
Oocytes were collected by one of three methods.
1. Recent (≦12 hours) post-ovulatory oocytes (n=12) were collected by surgically excising the oviduct ipsilateral to ovulation and then flushing the oviduct in a retrograde manner with modified DPBS.
2. Pre-ovulatory oocytes (n=3) were collected by surgically excising ovaries containing a pre-ovulatory follicle (≧35 mm) approximately 30 hours after administration of 2500 IU hCG and then manually aspirating the follicle.
3. Pre-ovulatory oocytes (n=180) were collected using transvaginal aspiration (TVA) of pre-ovulatory follicles approximately 24 hours after administration of 2500 IU hCG.
Oocytes collected post-ovulation were incubated for up to 6 hours in maturation medium (M-199) containing 10% FBS, 0.05 units/ml pFSH, 0.05 units/ml pLH, 10 units/ml penicillin and 10 μg/ml streptomycin. Oocytes collected pre-ovulation were incubated in maturation medium for approximately 12 hours.
Cumulus-free metaphase II oocytes and starved donor cells were placed in a manipulation drop of TL HEPES containing 7.5 μg of cytochalasin B. The first polar body and metaphase plate of the oocytes were drawn into a 25-28 ID enucleation pipette. The same pipette was used to aspirate a disaggregated donor cell nucleus and place it in the perivitelline space of an oocyte to obtain an NT couple. Fusion of NT couples was induced by a single 15 μsec, 2.2 kv/cm DC pulse in a 3.5 mm fusion chamber. Fusion medium was […] D-mannitol containing 0.5 mM HEPES and 0.05% fatty acid-free BSA. Fused NT couples were activated by placing them in an activation medium containing calcium chloride and ionomycin for 8 minutes. Three different concentrations of calcium chloride were used in the activation medium: 2 mM (n=133 oocytes), 6 mM (n=40 oocytes), and 20 mM (n=22 oocytes).
Immediately following nuclear transfer and activation, the oocytes, hereafter referred to as embryos, were surgically transferred to the oviduct of a recipient mare (Equus caballus) that had ovulated within 24 hours prior to the transfer. One to nine embryos were transferred to each mare. Pregnancy examinations on the recipient mare were performed using transrectal ultrasonography beginning on Day 12 post-transfer.

[1] = Group 4 (6x Ca activation, 3x peripheral media)
[2] = Group 4 protocol (6x Ca activation, 3x peripheral media), 59 horse oocytes
[3] = Group 4 protocol, of 6 two-week pregnancies
[4] = 2 mM calcium in activation medium
[5] = 6 mM calcium in activation medium
[6] = 20 mM calcium in activation medium

## [Ca+2].[Cl-].[Cl-] [calcium chloride]
Oocytes from mules; Group 1 (1x Ca all media), of 2 two-week pregnancies
  Two-week pregnancies detectable at 30 days: neither
Oocytes from mules; Group 1: 1x Ca (about 2 mM) all media
  PREGNANCIES (2 weeks): (1.7%)
Oocytes from mules; Group 1: 1x Ca (about 2 mM) all media, 115 oocytes
  PREGNANCIES (2 weeks), number: 2
Oocytes from mules; Group 2 (3x Ca activation medium), of 3 two-week pregnancies
  Two-week pregnancies detectable at 30 days: 2
Oocytes from mules; Group 2: 3x Ca (about 6 mM) in activation media, 1x Ca all other media
  PREGNANCIES (2 weeks): (7.5%)
Oocytes from mules; Group 2: 3x Ca (about 6 mM) in activation media, 1x Ca all other media, 40 oocytes
  PREGNANCIES (2 weeks), number: 3
Oocytes from mules; Group 3: 10x Ca (about 20 mM) in activation media, 1x Ca all other media
  PREGNANCIES (2 weeks): (9.09%)
Oocytes from mules; Group 3: 10x Ca (about 20 mM) in activation media, 1x Ca all other media, 22 oocytes
  PREGNANCIES (2 weeks), number: 2
Oocytes from mules; [1]
  Pregnancies detectable at 45 days: Five
  Pregnancies detectable at 120 days: 3
Oocytes from mules; Group 4 (6x Ca activation, 3x peripheral media), of 12 two-week pregnancies
  Two-week pregnancies detectable at 30 days: 9
Oocytes from mules; Group 4: 6x Ca (about 12 mM) in activation media, 3x Ca all other media, HECM media
  PREGNANCIES (2 weeks): (14.4%)
Oocytes from mules; Group 4: 6x Ca (about 12 mM) in activation media, 3x Ca all other media, HECM media, 132 oocytes
  PREGNANCIES (2 weeks), number: 19
Horse oocytes; [2]
  Pregnancy detected at two weeks: 4.4%
  Pregnancy detected at two weeks, number of mares: 6
Horse oocytes; [3]
  Pregnancies detected at 30 days: 3
  Pregnancies detected at 45 days: 1
Equine oocytes; [4]
  Pregnancy Rate: (1.5%)
  Pregnancy Rate (pregnancies/oocytes): 2/133
Equine oocytes; [5]
  Pregnancy Rate: (7.5%)
  Pregnancy Rate (pregnancies/oocytes): 3/40
Equine oocytes; 6 mM calcium in activation medium, Day 32 of gestation
  Ultrasonography of cloned mule conceptus: an embryonic heart was evident
Equine oocytes; [6]
  Pregnancy Rate: (9.1%)
  Pregnancy Rate (pregnancies/oocytes): 2/22
Equine oocytes; 6 and 20 mM combined compared to 2 mM in activation medium, P<0.05
  Pregnancies, higher versus lower calcium: more pregnancies
